Tests used:
[1] = tested on: HEK-293T cells; assay: Extracellular acidification rate (ECAR), Seahorse analysis, HEK-293T cells; assay type: cell-based, human; conditions: trehalose 5 mM, oligomycin 1 μM, 2DG 50 mM, added in sequence
Description: FIG. 3: Treh and Tret1 co-expression allows utilization of Trehalose as a carbon source for glycolysis. Line graph of the Extra Cellular Acidification Rate (ECAR) of Tret1-3×Flag and Treh-GFP expressing (transduced with retrovirus expressing both Tret1-3×Flag and Treh-GFP) or wild-type HEK-293T cells. Trehalose was added at 5 mM, Oligomycin at 1 μM and 2DG (2-Deoxy-D-glucose) at 50 mM.
To directly examine this notion, whether trehalose restores glycolysis of Treh/Tret1 expressing cells was tested. For this purpose, the extracellular acidification rate (ECAR), as a proxy for lactate secretion, of Treh/Tret1 or wild-type cells, was analyzed using Seahorse analysis.

[2] = tested on: human CD8 T cells; assay: Metabolic isotope tracing (13C6-glucose vs 13C12-trehalose, LC-MS) in DmTret1-1B/Treh-expressing human CD8 T cells; assay type: cell-based; conditions: 24 h with 13C12-Trehalose vs 13C6-Glucose; glycolysis, pentose phosphate pathway, TCA cycle
Description: FIGS. 6A-6I: Human primary T cells utilize trehalose for glycolysis, proliferation and cytokine production. Human primary PBMCs were activated with anti-CD3 and anti-CD28 for 48 hours. Then, they were retrovirally transduced with Treh1 and a trehalose transporter. (6A) FACS analysis of the T cells transduced with Treh1-GFP and Dm-Tret1-1B-mKate2. CD8 T cells were gated, and expression was analyzed 48 h after transduction. (6B) FACS analysis of the T cells transduced with Treh1-GFP and Dm-Tret1-1A-mKate2. CD8 T cells were gated, and expression was analyzed 48 h after transduction. (6C) Normalized ECAR measured by Seahorse analysis following trehalose or glucose supplementation and oligomycin and 2DG injections of Treh1 or DmTret1-1B/Treh1-expressing CD8 T cells. (6D-G): DmTret1-1B/Treh-expressing human CD8 T cells were incubated for 24 h with 13C6-Glucose or 13C12-Trehalose. Then cell extracts and media were subjected to metabolic analysis using LC-MS. (6D) Levels of lactate isotopologues in the medium of the cells. (6E-G) Isotopologue distributions in the cell fraction of detected key metabolites generated during (6E) glycolysis, (6F) the TCA cycle and (6G) the phosphate pentose pathway. […] Cells were counted every 3-4 days. […] Media was collected and INF-γ concentration was measured by ELISA at optical density of 605 (O.D.605). […]

[3] = tested on: HEK-293T cells; assay: Cell survival by PI staining (flow cytometry) of transfected HEK-293T cells in glucose-free, trehalose-supplemented medium; assay type: cell-based, human; conditions: four days
Description: (§1) FIGS. 2A-2C: Treh and Tret1 co-expression rescues the proliferation and survival of HEK-293T cells in glucose-free, trehalose-supplemented medium. (2A) Histograms of cell survival as measured by PI staining using a flow cytometer. HEK-293T cells were transfected with either Tret1-3×Flag expression plasmid, HA-Treh expression plasmid or both together. 48 h post-transfection medium was replaced to a glucose-free medium supplemented with the indicated trehalose concentrations. Four days later flow analysis was performed. (2B) Histograms of cell survival as measured by PI staining using a flow cytometer. HEK-293T cells were co-transfected with Tret1-3×Flag and HA-Treh expression plasmids or pCDNA3.1 (empty vector). 48 h post-transfection medium was replaced with glucose-free medium supplemented with the 25 mM trehalose. Four days later, flow analysis was performed. (2C) Bar graph of MMT analysis. HEK-293T cells were transfected with pCDNA3.1 (empty vector), Tret1-3×Flag or HA-Treh expression plasmids or both plasmids together. 48 h post-transfection medium was replaced with glucose-free medium supplemented with 25 mM trehalose. Ten days later, cell survival was measured by MTT assay.
(§2) To test the function of delivered Treh and Tret1 genes in HEK-293T cells the survival of Treh/Tret1 expressing cells was tested in the absence or presence of various trehalose concentrations in glucose-free media.

[4] = tested on: HEK-293T cells; assay: MTT assay of transfected HEK-293T cells in glucose-free medium supplemented with trehalose; assay type: cell-based, human
Description: as §1, §2

## O=CC[C@@H](O)[C@H](O)[C@H](O)CO [2-Deoxy-D-glucose, reference compound]
[1]
  ECAR of HEK293T cells expressing Treh/Tret1 following addition: significantly decreased

## CC[C@H]1/C=C/C=C/C[C@@H](C)[C@H](O)[C@@](C)(O)C(=O)[C@@H](C)[C@H](O)[C@@H](C)C(=O)[C@@H](C)[C@H](O)[C@@H](C)/C=C/C(=O)O[C@@H]2[C@H](C)[C@H](CC1)O[C@]1(CC[C@H](C)[C@H](C[C@@H](C)O)O1)[C@H]2C [oligomycin, reference compound]
[1]
  ECAR of HEK293T cells expressing Treh/Tret1 following addition: did not lead to an elevation in ECAR

## OC[C@H]1O[C@H](O[C@H]2O[C@H](CO)[C@@H](O)[C@H](O)[C@H]2O)[C@H](O)[C@@H](O)[C@@H]1O [trehalose]
[1]
  ECAR of HEK293T cells expressing Treh/Tret1 following addition: significant increase
[2]
  metabolic pathways into which the sugar integrates: integrates into the same metabolic pathways as glucose
[3]; HEK-293T co-transfected with Tret1-3×Flag and HA-Treh, glucose-free medium + 25 mM trehalose
  rescue of survival of Treh/Tret1 expressing cells: could rescue the survival
[3]; HEK-293T with pCDNA3.1 empty vector, glucose-free medium + 25 mM trehalose
  rescue of survival of empty vector transfected cells: not
[3]; HEK-293T, glucose-free media, 2 mM trehalose, PI staining
  survival of Treh/Tret1 expressing cells: substantial rescue
[3]; HEK-293T, glucose-free media, various trehalose concentrations
  survival of Treh/Tret1 expressing cells versus trehalose concentration: increased survival of the cells in correlation with the trehalose concentration

B1: Tret1: Drosophila melanogaster trehalose transporter 1, long isoform A, 857 amino acids (SEQ ID NO: 5), expressed in human cells (protein)
chain: MSGRDNRGAGGGGGGHQPLSNAMGKLKEKLTRVGDELGYHRVESNLSTSNTATSLDTILPEDPFLFPQVSPQRHPQNTVRTQRLLEDEPPLSFRPLLEDDDINEPPTQQQQRTPLRASGSLELTPLPPPPTSLEIREHRDRQQRGAQGDELQRSKQSLKGSRVSFERRDTGNSNTNSNKAAESSDEDSFEEKRTGFQQQKATSVDHKGILKDLKHILANDNRRQFQAKKHVSLDVKGTRFLQDLLKESSSEEEFHKTRREFQGRKHQSLDPRVTFKLDKVLQGSSTDSDEEGEDAEHKRLIHRPKDITKPVIIDLKDLESESDEDFLTSRQHFQQQRSISTDSRKSRRLYEMDEMDNKRGENIRHAVPFVRQITEDGKPKLEVYRPTTNPIYIWTQVLAALSVSLGSLVVGFVSAYTSPALVSMTDRNITSFEVTQDAGSWVGGIMPLAGLAGGIAGGPLIEYLGRRNTILATAVPFIVSSLLIACAVNVAMVLCGRFLAGFCVGIASLSLPVYLGETVQPEVRGTLGLLPTAFGNIGILLCFVAGSFMNWSMLAFLGAALPVPFLILMFLIPETPRWFVGRGLEERARKALKWLRGKEADVEPELKGLMRSQADADRQASRNTMLELLKLNNLKPLSISLGLMFFQQFSGINAVIFYTVQIFKDAGSTIDGNLCTIIVGIVNFLATFIGIVLIDRAGRKILLYVSDIAMVLTLFVLGGFFYCKTYGPDVSHLGWLPLTCFVIYILGFSLGFGPIPWLMMGEILPAKIRGSAASVATAFNWFCTFVVTKTFQDLTVAMGAHGAFWLFGAICFVGLFFVIIYVPETQGKTLEDIERKMMGRVRRMSSVANIKPLSFNM
modifications: 3xFlag tag; Drosophila melanogaster
[4]
  survival of mammalian cells with trehalose as the only sugar source (summary statement): greatly improved survival

From patent publication US20260021180A1, “IMPROVING ADOPTIVE CELL TRANSFER THERAPY (ACT) TREATMENT” (YISSUM RESEARCH DEVELOPMENT COMPANY OF THE HEBREW …, priority 2022, published 2026)
